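Five compound concentrations were applied to cells in 96-well plates for 48 hours; endpoints were derived by simple linear interpolation of the resulting dose-response curve. GI50 = concentration required for 50% inhibition of growth.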 Active and inactive are the calls of the source. Cut-off read from the data, not from the text of the source: active = GI50 up to about 1.1 µM and inactive = higher.
Tests used:
Assay in all cases: growth of human tumour cells (NCI), 48 h
[1] = test system: EKVX
[2] = test system: DU-145
[3] = test system: CAKI-1
[4] = test system: HCT-15
[5] = test system: IGROV-1
[6] = test system: RPMI-8226
[7] = test system: SN12C
[8] = test system: A549
[9] = test system: A498
[10] = test system: KM12
[11] = test system: SK-MEL-5
[12] = test system: 786-0
[13] = test system: RXF 393
[14] = test system: LOX IMVI
[15] = test system: TK-10
[16] = test system: Malme-3M
[17] = test system: HOP-92
[18] = test system: OVCAR-5
[19] = test system: OVCAR-3
[20] = test system: ACHN
[21] = test system: MDA-N
[22] = test system: K562
[23] = test system: M14
[24] = test system: OVCAR-8
[25] = test system: SR
[26] = test system: SNB-75
[27] = test system: MDA-MB-435
[28] = test system: Hs-578T
[29] = test system: NCI-H226
[30] = test system: NCI/ADR-RES
[31] = test system: PC-3
[32] = test system: HT-29
[33] = test system: UO-31
[34] = test system: MOLT-4
[35] = test system: SK-MEL-2
[36] = test system: BT-549
[37] = test system: COLO 205
[38] = test system: SF-539
[39] = test system: HOP-62
[40] = test system: MCF7
[41] = test system: HCC 2998
[42] = test system: MDA-MB-231
[43] = test system: SK-OV-3
[44] = test system: OVCAR-4
[45] = test system: SK-MEL-28
[46] = test system: SNB-19
[47] = test system: UACC-62
[48] = test system: NCI-H522
[49] = test system: CCRF-CEM
[50] = test system: U-251
[51] = test system: HL-60
[52] = test system: UACC-257
[53] = test system: SF-295
[54] = test system: SW-620
[55] = test system: T47D
[56] = test system: NCI-H460
[57] = test system: SF-268
[58] = test system: DMS-273
[59] = test system: SNB-78
[60] = test system: HCT-116
[61] = test system: NCI-H23
[62] = test system: M19-MEL
[63] = test system: KM-20L2
[64] = test system: LXFL 529

Compound: Nc1nc(Cl)cc(NCC2(CO)CC(CCCc3ccccc3)C2)n1 (stereo not drawn)
- GI50 [1]: > 25.3 µM (inactive)
- GI50 [2]: > 100 µM (inactive)
- GI50 [3]: > 100 µM (inactive)
- GI50 [4]: > 100 µM
- GI50 [5]: > 72.8 µM (inactive)
- GI50 [6]: > 100 µM (inactive)
- GI50 [7]: > 36.6 µM (inactive)
- GI50 [8]: 14.7 µM (inactive)
- GI50 [9]: > 63.1 µM (inactive)
- GI50 [10]: > 100 µM (inactive)
- GI50 [11]: 0.31 µM (active)
- GI50 [12]: > 81.7 µM (inactive)
- GI50 [13]: > 47.1 µM (inactive)
- GI50 [14]: 0.282 µM (active)
- GI50 [15]: > 77.4 µM (inactive)
- GI50 [16]: > 100 µM (inactive)
- GI50 [17]: 34 µM (inactive)
- GI50 [18]: > 100 µM (inactive)
- GI50 [19]: > 100 µM (inactive)
- GI50 [20]: > 41.8 µM (inactive)
- GI50 [21]: > 100 µM (inactive)
- GI50 [22]: 2.11 µM (inactive)
- GI50 [23]: > 100 µM (inactive)
- GI50 [24]: > 72.1 µM (inactive)
- GI50 [25]: 1 µM (active)
- GI50 [26]: > 46 µM (inactive)
- GI50 [27]: > 100 µM (inactive)
- GI50 [28]: > 64.4 µM (inactive)
- GI50 [29]: > 100 µM (inactive)
- GI50 [30]: 4.86 µM (inactive)
- GI50 [31]: > 81.3 µM (inactive)
- GI50 [32]: 25.4 µM (inactive)
- GI50 [33]: 13.8 µM (inactive)
- GI50 [34]: > 26.9 µM (inactive)
- GI50 [35]: > 100 µM (inactive)
- GI50 [36]: > 100 µM (inactive)
- GI50 [37]: > 100 µM (inactive)
- GI50 [38]: > 100 µM (inactive)
- GI50 [39]: > 100 µM (inactive)
- GI50 [40]: 0.0492 µM (active)
- GI50 [41]: > 100 µM (inactive)
- GI50 [42]: > 100 µM (inactive)
- GI50 [43]: 41.4 µM (inactive)
- GI50 [44]: > 100 µM (inactive)
- GI50 [45]: > 100 µM (inactive)
- GI50 [46]: > 71.1 µM (inactive)
- GI50 [47]: > 100 µM (inactive)
- GI50 [48]: > 68.7 µM (inactive)
- GI50 [49]: > 73.1 µM (inactive)
- GI50 [50]: > 85.3 µM (inactive)
- GI50 [51]: > 35.1 µM (inactive)
- GI50 [52]: 0.242 µM (active)
- GI50 [53]: > 33.2 µM (inactive)
- GI50 [54]: > 100 µM (inactive)
- GI50 [55]: 2.31 µM (inactive)
- GI50 [56]: > 69.5 µM (inactive)
- GI50 [57]: > 100 µM (inactive)

Compound: C=CCC1(CC)C(=O)NC(=O)NC1=O [ETALLOBARBITAL]
- GI50 [58]: > 100 µM (inactive)
- GI50 [1]: > 100 µM (inactive)
- GI50 [59]: > 100 µM (inactive)
- GI50 [4]: > 100 µM
- GI50 [5]: > 100 µM (inactive)
- GI50 [6]: > 100 µM (inactive)
- GI50 [60]: > 100 µM (inactive)
- GI50 [7]: > 100 µM (inactive)
- GI50 [8]: > 100 µM (inactive)
- GI50 [10]: > 100 µM (inactive)
- GI50 [12]: > 100 µM (inactive)
- GI50 [13]: > 100 µM (inactive)
- GI50 [14]: > 100 µM (inactive)
- GI50 [15]: > 100 µM (inactive)
- GI50 [16]: > 100 µM (inactive)
- GI50 [19]: > 100 µM (inactive)
- GI50 [20]: > 100 µM (inactive)
- GI50 [22]: > 100 µM (inactive)
- GI50 [23]: > 100 µM (inactive)
- GI50 [24]: > 100 µM (inactive)
- GI50 [25]: > 100 µM (inactive)
- GI50 [26]: > 100 µM (inactive)
- GI50 [61]: > 100 µM (inactive)
- GI50 [29]: > 100 µM (inactive)
- GI50 [62]: > 100 µM (inactive)
- GI50 [33]: > 100 µM (inactive)
- GI50 [34]: > 100 µM (inactive)
- GI50 [37]: > 100 µM (inactive)
- GI50 [38]: > 100 µM (inactive)
- GI50 [39]: > 100 µM (inactive)
- GI50 [41]: > 100 µM (inactive)
- GI50 [43]: > 100 µM (inactive)
- GI50 [63]: > 100 µM (inactive)
- GI50 [45]: > 100 µM (inactive)
- GI50 [46]: > 100 µM (inactive)
- GI50 [47]: > 100 µM (inactive)
- GI50 [48]: > 100 µM (inactive)
- GI50 [49]: > 100 µM (inactive)
- GI50 [50]: > 100 µM (inactive)
- GI50 [64]: > 100 µM (inactive)
- GI50 [51]: > 100 µM (inactive)
- GI50 [52]: > 100 µM (inactive)
- GI50 [53]: > 10 µM (inactive)
- GI50 [54]: > 100 µM (inactive)
- GI50 [56]: > 100 µM (inactive)
- GI50 [57]: > 100 µM (inactive)

From ChEMBL document CHEMBL1201862, “PubChem BioAssay data set” (2004)
